Experimental data as given in patent publication US8168596B2, “Use of cycloartane compounds for treating arthritis” (NuLiv Holding Inc., priority 2008, dated 2012).

What was measured:
MMP1 = conditions: UO126 10 μM, SP600125 25 μM, SB203580 5 μM, 24 h, then PMA 100 ng/mL 24 h
Method: The SW1353 cells were grown at 37° C. in a humidified incubator under 5% CO2 and 95% air in the culture medium as described above. The SW1353 cells were then sub-cultured into 6-well culture plates with serum free medium at an average amount of 2×10^5 cells per well and incubated for 24 hours. Then, the SW1353 cells were treated with 10 μM UO126 (MEK1-specific inhibitor), 25 μM, SP600125 (JNK-specific inhibitor), 5 μM SB203580 (p38-specific inhibitor), or 20 μM LY294002 (PI3K kinase inhibitor), and incubated for another 24 hours. Later, the SW1353 cells were treated with 100 ng/mL PMA and again incubated for 24 hours. Finally, the SW1353 cells were under cell extraction and the cell lysate was used for further luciferase analysis and western blotting analysis.
The SW1353 cells were grown at 37° C. in a humidified incubator under 5% CO2 and 95% air in the culture medium as described above. The SW1353 cells were then sub-cultured into 24-well culture plates and cultured for 24 hours. […] Following cell extraction, the cell lysate was centrifuged at 4° C., 20000 g for 30 minutes and then transferred to a 1.5 ml-microcentrifuge tube. Then, 100 μl buffer A (0.1 mM luciferin) and 350 μl buffer B (1 M MgSO4, 1 M Hepes (pH 7.8), 0.1 M ATP) were added into the microcentrifuge tube. The luciferase activity of final mixture was measured by a luminometer for 30 seconds.

MMP-1 [1] = experiment: Zymography of MMP-1 from pre-treated SW1353 cells; assay type: cell-based, human; conditions: PMA-pre-treated SW1353; 0.1 μM, 24 h
Method: (§1) At the beginning of the experiment, the cells were pre-treated with 100 ng/mL PMA or 10 ng/mL IL-1β for 24 hours. The cells were then treated with 0.1 μM Dexamethasone, various astragaloside compounds (0.1 μM) or extracts of Astragalus membranaceous (1 μg/mL) at indicated dosages for another 24 hours. For control sample, 0.1% DMSO was used as a negative control for these experiments. The conditioned culture mediums were then centrifuged, 2-fold concentrated and collected for assay of collagens or MMPs secreted into the culture medium.
(§2) The proteolytic activities of MMPs from SW1353 cells were measured essentially as described previously (Circ Res, 1999; 85:906-911). The cells were lysed in lysis buffer (1% Triton X-100, 50 mM Tris-Cl, pH 7.4, 180 mM NaCl, 1 mM EDTA). The samples were measured for their protein concentration using the bicinchoninic acid (BCA) protein assay kit as described. Samples of concentrated conditioned medium and cell lysates were mixed with non-reducing electrophoresis loading buffer and subjected to electrophoresis under non-reducing conditions. The electrophoresis was carried out on a 10% SDS-PAGE co-polymerized with 2 mg/mL gelatin or casein (Sigma, St. Louis, Mo. USA). For zymographic analysis of pro-MMP-2 and activated MMP-2, the total 20 μg of culture medium were used for electrophoresis. Following electrophoresis, renaturation of the proteins was achieved by incubating the gels twice in 25 g/L Triton X-100 at room temperature for 10 min. Subsequently the gels were incubated in 50 mM Tris-HCl, pH 7.5 containing 0.2 M NaCl, 0.02% Brij35 and 10 mM CaCl2 at 37° C. for 18 hours. After the gels were stained with Coomassie Brilliant Blue R-250 and destained, zones of proteolytic activities became visible as transparent bands in the stained gel. In order to obtain higher sensitivity, the gels were further destained in a solution of 1% Triton X-100 (1 to 2 hours). This procedure increased the signal-to-noise ratio, allowing the visualization of faint gelatinase bands at 92 kDa, 125 kDa and greater than 200 kDa. Zymograms were read using a Molecular Dynamics (Sunnyvale, Calif., USA) computing laser densitometer with Image Quant software.

HCH cells [2] = experiment: Glucosamine uptake assay; assay type: cell-based, human; conditions: astragalosides 0.1 μM, 24 h, Ctrl 1.00
Method: The HCHs were cultured as described above in Example 7. For the glucosamine uptake test, HCH cells were seeded into 24-well plate at a density of 3×10^4 cells per well and cultured for 24 hours. The cells were then treated in the absence (solvent control) or presence of the astragalosides (0.1 μM) or Astragalus membranaceous extracts (1.0 μg/mL) for another 24 hours. The treated cells were then washed twice with PBS and incubated in glucose and serum free medium (GSFM). After 2 hours, the cells were replaced with fresh GSFM containing 0.2 μCi of [^14C]-Glucosamine (American Radiolabelled Chemicals Inc, ARC, St. Louis, Mo., USA). At the designated time interval, the cells were washed twice with GSFM containing cold glucosamine and then lysed in 200 μL of 2% SDS. Cell lysates were centrifuged at 15000 g for 15 min. Intracellular uptaken glucosamine was determined by transferring 10 μL of the cell lysate to filter-bottomed UniFilter plates (Perkim-Elmer) and counting. The samples were measured for their protein concentration using the BCA protein assay kit as described above. The amount of glucosamine accumulated in the cells was calculated and normalized to protein concentration and uptake rate was expressed as counts per minute per microgram of cell protein (cpm/min/μg).

MMP-9 = experiment: Zymography of MMP-9 from pre-treated SW1353 cells; assay type: cell-based, human; conditions: PMA-pre-treated SW1353; 0.1 μM, 24 h
Method: as §1, §2

MMP-2 = experiment: Zymography of MMP-2 from pre-treated SW1353 cells; assay type: cell-based, human; conditions: PMA-pre-treated SW1353; 0.1 μM, 24 h
Method: as §1, §2

MMP-1 [3] = experiment: Western blot of MMP-1 in PMA- or IL-1β-pre-treated SW1353 cells (Example 6); assay type: cell-based, human; conditions: 48 h
Method: (§3) The cells were then plated on 6-cm dishes at a density of 1×10^6 cells/dish for 24 hours prior to any treatment. At the beginning of the experiment, the cells were pre-treated with 100 ng/mL PMA or 10 ng/mL IL-1β for 24 hours. The cells were then treated 0.1 μM Dexamethasone with, various astragaloside compounds (0.1 μM) or extracts of Astragalus membranaceous (1 μg/mL) at indicated dosages for another 48 hours. For control sample, 0.1% DMSO was used as a negative control for these experiments. The conditioned culture mediums were then centrifuged, 2-fold concentrated and collected for assay of collagens or MMPs secreted into the culture medium.
(§4) Western blotting analysis was carried out on both cultured medium and cell lysates, as follows. The cells were washed and lysed in 0.2 mL of lysis buffer (1% NP-40, 50 mM Tris-HCl, pH 7.4, 180 mM NaCl, 1 mM EDTA, 1 mM PMSF, 1 mM NaF, 10 mM Na3VO4) for 30 min at 4° C. After centrifuging at 17500 g for 15 min, the supernatants of cell lysate were also collected. Protein concentration of the samples were measured using the bicinchoninic acid (BCA) protein assay kit according to the manufacturer's protocol (Pierce, Rockford, Ill., USA). Equal amount of protein samples of concentrated conditioned medium (100 μg) or cell lysate supernatants (50 μg) were mixed with an appropriate volume of 4×SDS sampling buffer and separated by 8% SDS-PAGE gel. The protein bands separated in the SDS-PAGE gel were blotted onto a polyvinylidene fluoride (PVDF) membrane. The blotted PVDF membrane was washed twice and blocked in freshly prepared Tris-buffered saline (TBS) containing 0.1% Tween-20 and 7% skim milk (TBST) for 2 hours at room temperature. The PVDF membrane was then incubated with either antibodies against collagen I and III or the housekeeping protein α-tubulin (Santa Cruz Biotechnology, Santa Cruz, Calif.) for 18 hours at 4° C. Horseradish peroxidase-conjugated anti-goat antibody was used as secondary antibody. Signals were visualized by an enhanced chemiluminescence kit (Clonetech, Palo Alto, Calif., USA) followed by exposure to X-ray films.

MMP-13 [4] = experiment: Western blot of MMP-13 in PMA- or IL-1β-pre-treated SW1353 cells (Example 6); assay type: cell-based, human; conditions: 0.1 μM, 48 h
Method: as §3
as §4, with “The PVDF membrane was then incubated with either antibodies against collagen I and III or the housekeeping protein α-tubulin (Santa Cruz Biotechnology, Santa Cruz, Calif.) for 18 hours at 4° C.” left out

HCH cells [5] = experiment: Proline uptake assay; assay type: cell-based, human; conditions: astragalosides 0.1 μM, 24 h, Ctrl 1.00
Method: The proline uptake assay was carried out as described below, generally in accordance with the method disclosed in Biochim Biophys Acta. 1104:283-292, 1992, the contents of which are incorporated by reference. Briefly, HCH cells were seeded into a 24-well plate at a density of 3×10^4 cells per well and cultured for 24 hours. The cells were then treated in the absence (solvent control) or presence of the astragalosides (0.1 μM) or Astragalus membranaceous extracts (1.0 μg/mL) for another 24 hours. The treated cells were then washed once with PBS and incubated in amino acid free medium (AAFM) for another 30 min. The treated cells were then replaced with fresh AAFM containing 50 μg/mL of ascorbate and total of 0.5 mM of L-proline containing 1 μCi [^3H] Proline (American Radiolabelled Chemicals Inc, ARC, St. Louis, Mo., USA). At designated time intervals, the cells were washed with AAFM containing cold proline and then lysed in 200 μL of 2% SDS. Cell lysates were centrifuged at 15000 g for 15 min. Intracellular proline uptaken by the cells was determined by transferring 10 μL of the cell lysate to filter-bottomed UniFilter plates (Perkim-Elmer) and counting. The samples were measured for their protein concentrations using the BCA protein assay kit as described above. The amount of proline accumulated in the cells was calculated and normalized to protein concentration. And cellular uptake rate was expressed as nmole of L-proline per minute per […] of cell protein (nmole/min/μg).

MMP-13 [6] = experiment: Western blot of MMP-13 in pre-treated human chondrocytes (HCHs); assay type: cell-based; conditions: 0.1 μM, 48 h
Type II Collagen = experiment: Western blot of Type II Collagen in pre-treated human chondrocytes (HCHs); assay type: cell-based; conditions: PMA-pre-treated HCH culture medium; 0.1 μM, 48 h
MMP-1 [7] = experiment: Western blot of MMP-1 in pre-treated human chondrocytes (HCHs); assay type: cell-based; conditions: 0.1 μM, 48 h
[8] = PMA-pre-treated SW1353 cell extract, 0.1 μM
[9] = PMA-pre-treated SW1353 culture medium, 0.1 μM
[10] = PMA-pre-treated SW1353 cell extract
[11] = PMA-pre-treated SW1353 culture medium
[12] = PMA-pre-treated HCH cell extract
[13] = PMA-pre-treated HCH culture medium

SMILES | luciferase activity (control group 1 fold, PMA-only group 8 fold) (MMP1) | MMP-1, Zymography, relative to Ctrl 1.00 (MMP-1 [1]) | glucosamine uptake, Relative fold (HCH cells [2]) | MMP-9, Zymography, relative to Ctrl 1.00 (MMP-9) | MMP-2, Zymography, relative to Ctrl 1.00 (MMP-2) | MMP-1, Western blot, relative to Ctrl 1.00 (MMP-1 [3]; [8]) | MMP-1, Western blot, relative to Ctrl 1.00 (MMP-1 [3]; [9]) | MMP-13, Western blot, relative to Ctrl 1.00 (MMP-13 [4]; [10]) | MMP-13, Western blot, relative to Ctrl 1.00 (MMP-13 [4]; [11]) | proline uptake, Relative fold (HCH cells [5]) | MMP-13, Western blot, relative to Ctrl 1.00 (MMP-13 [6]; [12]) | MMP-13, Western blot, relative to Ctrl 1.00 (MMP-13 [6]; [13]) | Type II Collagen, Western blot, relative to Ctrl 1.00 (Type II Collagen) | MMP-1, Western blot, relative to Ctrl 1.00 (MMP-1 [3]; IL-1β-pre-treated SW1353 cell extract, compounds 0.1 μM) | MMP-1, Western blot, relative to Ctrl 1.00 (MMP-1 [3]; IL-1β-pre-treated SW1353 culture medium, 0.1 μM) | MMP-13, Western blot, relative to Ctrl 1.00 (MMP-13 [4]; IL-1β-pre-treated SW1353 culture medium) | MMP-1, Western blot, relative to Ctrl 1.00 (MMP-1 [7]; [12]) | MMP-1, Western blot, relative to Ctrl 1.00 (MMP-1 [7]; [13])
C[S+]([O-])c1ccc(-c2nc(-c3ccncc3)c(-c3ccc(F)cc3)[nH]2)cc1 (stereo not shown) [SB203580] | 2 fold |  |  |  |  |  |  |  |  |  |  |  |  |  |  |  |  | 
CC(=O)O[C@H]1[C@H](O[C@H]2CC[C@]34C[C@]35CC[C@]3(C)[C@@H]([C@@]6(C)CC[C@@H](C(C)(C)O)O6)[C@@H](O)C[C@@]3(C)[C@@H]5C[C@H](O[C@@H]3O[C@H](CO)[C@@H](O)[C@H](O)[C@H]3O)[C@H]4C2(C)C)OC[C@@H](OC(C)=O)[C@@H]1O [IsoAS1, Isoastragaloside I] |  | 0.66 | 1.16 fold | 0.85 | 1.01 | 0.67 | 0.77 | 1.19 | 1.03 | 2.82 fold |  |  |  |  |  |  |  | 
CC(C)(O)C1CC[C@](C)(C2[C@@H](O)C[C@@]3(C)C4C[C@H](OC5OC(CO)C(O)C(O)C5O)C5C(C)(C)[C@@H](O)CCC56CC46CC[C@]23C)O1 (stereo partly drawn) [AA, cycloastragenol 6-O-β-D-glucopyranose] |  |  | 1.19 fold |  |  |  | 0.52 |  | 0.84 | 2.80 fold | 0.44 | 0.49 | 1.42 | 0.74 | 0.76 | 0.93 | 0.44 | 0.44
CC(=O)O[C@@H]1[C@@H](O)[C@H](O[C@H]2CC[C@]34C[C@]35CC[C@]3(C)[C@@H]([C@@]6(C)CC[C@@H](C(C)(C)O)O6)[C@@H](O)C[C@@]3(C)[C@@H]5C[C@H](O[C@@H]3O[C@H](CO)[C@@H](O)[C@H](O)[C@H]3O)[C@H]4C2(C)C)OC[C@H]1O [IsoAS2, Isoastragaloside II] |  | 0.95 | 1.07 fold | 0.95 | 1.04 | 1.28 | 0.77 | 0.60 | 0.80 | 1.61 fold |  |  |  |  |  |  |  | 
